Structures are written as SMILES. Converted amounts (≈) assume the structure as drawn.

Broadly, the IC50 is the concentration at which inhibition is half-maximal.

Type in all cases: functional, cell-based
Test [1] deals with KB. Kind of test: Reversal of multidrug resistance in vincristine-resistant human KB cells in presence of 0.1 uM vincristine.
Test [2] can be described thus: Cytotoxicity against vincristine-resistant human KB/VJ300 cells.
The test system of test [3] is KB. Kind of test: Reversal of multidrug resistance in vincristine-resistant human KB cells in presence of 0.121 uM vincristine.

With `CCOC(=O)[C@@H]1[C@@H](O)[C@@]23C=CCN4CC[C@@]5(c6ccccc6N[C@]15CC2)[C@@H]43` [KOPSILOSCINE J], the IC50 in the test on KB [1] is 15 µg/mL; in test [2], above 25 µg/mL.
With `COC(=O)N1c2c(ccc3c2OCO3)[C@@]23CCN4C[C@@H]5O[C@@H]5[C@]5(CC[C@]12[C@](O)(C(=O)OC)[C@@H]5O)[C@H]43` [KOPSIMALINE A], the IC50 in the test with KB [3] was 3.9 mM; in test [2], above 25 µg/mL.
`COC(=O)N1c2c(O)cccc2[C@@]23CCN4C[C@@H]5O[C@@H]5[C@]5(CC[C@]12[C@](O)(C(=O)OC)[C@@H]5O)[C@H]43` [KOPSIMALINE B]: the IC50 in the test on KB [1] is 13 µg/mL; in test [2] it was above 25 µg/mL.
`COC(=O)N1c2c(ccc(OC)c2O)[C@@]23CCN4C[C@@H]5O[C@@H]5[C@]5(CC[C@]12[C@](O)(C(=O)OC)[C@@H]5O)[C@H]43` [KOPSIMALINE C]: the IC50 with KB [1] is 18.2 µg/mL; in test [2], above 25 µg/mL.
The matching figures for `COC(=O)N1c2c(ccc3c2OCO3)[C@@]23CCN4C[C@@H]5O[C@@H]5[C@@]5([C@@H](O)[C@@](O)(C(=O)OC)[C@@]12C[C@@H]5O)[C@H]43` [KOPSIMALINE D]: 9.2 µg/mL and 25 µg/mL (≈ 49.8 µM).
Regarding `COC(=O)N1c2c(OC)cccc2[C@@]23CCN4C[C@@H]5O[C@@H]5[C@]5(CC[C@]12[C@](O)(C(=O)OC)[C@@H]5O)[C@H]43` [KOPSIMALINE E], the IC50 with KB [1] is 18 µg/mL; in test [2], above 25 µg/mL.

(Values after ChEMBL document CHEMBL1142391, “Biologically active aspidofractinine alkaloids from Kopsia singapurensis” (J Nat Prod, 2008).)
